One series deals with wild type N-NTD. Also on record: method as in PMID 22272272. To be noted: hexachlorofluorescein labeled ssRNA titrated with N-NTD; read-out: KD of RNA binding to N-NTD; cited from earlier work.
For series [1], the system named is SARS-CoV-2. The series can be described thus: microbe, parasite or virus in culture. The class given is cell-based. Conditions: for effect on viral replication: infected Vero E6 cells, MOI 0.01, 48 and 72 hpi.
A further series concerns COX. Conditions: cited from earlier work; for COX Inhibition: which COX is inhibited, ref 11 (given for naproxen A and C0).
Series [2] concerns N NTD oligomerization induced by 48-mer DNA. The series is classed as biochemical. Conditions: for Oligomer Inhibition/Enhancement / Oligomer Size (hydrodynamic diameter Dh of DNA-NTD complex): NTD (60 µM) monomer, [compound] = 37.5 µM, [48-mer] = 29.4 µM; for Oligomer Size (hydrodynamic diameter Dh of DNA-NTD complex): 20 °C, without ligand 15.7 ± 0.7.
Series [3] in a line: Cytotoxicity in Vero E6 cells. To be noted: African green monkey.
The next series deals with Influenza A virus. Conditions: cited from earlier work.
The nature of a further series: in vitro. To be noted: African green monkey.
In series [4] the target is SARS-CoV-2 N-NTD (monomer) with labeled 10-mer RNA (Severe acute respiratory syndrome coronavirus 2, UniProt P0DTC9). The series can be described thus: biochemical. Conditions: read-out: N Binding, Fluo Anisotropy (KD, displacement of RNA).
The next series has as its system viral 3C-like protease. To be noted: cited from earlier work.
The test system of another series is SARS-CoV-2 in nasal HAE. Conditions: 90 µM or 300 µM, postinfection treatment, 48 hpi.
Series [5] concerns SARS-CoV-2. Also noted: method as in PMID 33441348. To be noted: cited from earlier work.
The mark [6] stands for this setting: Vero E6, MOI 0.01, treatment 1 hpi.

Entries after “also recorded” stand apart in the source; their conditions may differ. Where two headings read alike, the source gives them in different places. A value given as a limit tells only on which side of the number the result lay.

“10-mer RNA: fluorescently labeled RNA UCUCUAAACG labeled with 5′-hexachlorofluorescein”: the Kd in the series with wild type N-NTD was 8.3 ± 0.8 µM.

With `CC(=O)Nc1ccc(O)cc1` [Acetaminophen (paracetamol), Acetaminophen], in the series with SARS-CoV-2 [1] (setting [6]), the “Mean IC50 (viral replication)” value is listed as “No inhibition”. In addition, in the series with SARS-CoV-2 [1], the “effect on viral replication” value is listed as “No inhibition of viral replication; also recorded: mainly not affecting viral replication”. In addition, the “COX Inhibition” value in the series with COX is listed as “COX1 + COX2 ? ^1”. In series [2], the “Oligomer Inhibition/Enhancement” value is listed as “did not modify NTD oligomerization” and the “Oligomer Size (hydrodynamic diameter Dh of DNA-NTD complex)” value stood at 14.0 ± 1.0 nm. In series [3], this compound came in with a CC50 above 400 µM, a CC50 at 48 h post infection above 400 µM and a CC50 at 72 h post infection above 400 µM.

Regarding `Cc1ccc(-c2cc(C(F)(F)F)nn2-c2ccc(S(N)(=O)=O)cc2)cc1` [Celecoxib], in the series with SARS-CoV-2 [1] (setting [6]), the “Mean IC50 (viral replication)” value is given as “proviral”. The “effect on viral replication” value in the series on SARS-CoV-2 [1] was “No inhibition of viral replication; also recorded: did not present a clear antiviral effect”. For the same compound, the “COX Inhibition” value in the series with COX is reported as “COX2”. The “Oligomer Inhibition/Enhancement” value in series [2] (listed as celecoxib) was “enhanced the formation of large species”. Moreover, in series [2] (compound in DMSO, compared to N + DMSO (12 nm)), the “Oligomer Size, large particles formed” value is “^7 Formation of large particles of 3 µm as compared to N + DMSO (12 nm)”. In series [3], this compound displayed a CC50 of 80 µM and a CC50 at 48 h post infection of 83 µM.

For the compound `COc1ccc2cc(C(CCC(=O)O)C(=O)O)ccc2c1` (stereo not drawn) [Naproxen A], the “antiviral effect against Influenza A virus” value with Influenza A virus was “no antiviral effect”. Further, the “Mean IC50 (viral replication)” value in the series with SARS-CoV-2 [1] (setting [6]) is reported as “No inhibition”. Also, the “effect on viral replication” value in the series with SARS-CoV-2 [1] is “did not reduce viral replication”. Further, the “ability to inhibit COX” value in the series on COX is “lacked the ability to inhibit COX”. In addition, the “Oligomer Size (hydrodynamic diameter Dh of DNA-NTD complex)” value in [2] is reported as 16.0 ± 0.8 nm. In addition, in the series “in vitro”, the CC50 was above 1000 µM, the CC50 at 48 h post infection was above 1000 µM and the CC50 at 72 h post infection is above 1000 µM.

In the case of `COc1ccc2cc(-c3c(C(=O)O)cccc3C(=O)O)ccc2c1` [Naproxen C0], in series [4], the Kd amounted to 1.6 µM. Also, the IC50 in the series with SARS-CoV-2 [1] (Severe acute respiratory syndrome coronavirus 2, Vero C1008, Vero E6, MOI 0.01, treatment 1 hpi, read-out: Mean IC50 (viral replication)) came out at 75 ± 25 µM; with SARS-CoV-2 [1] (Severe acute respiratory syndrome coronavirus 2, Vero C1008, Vero E6, MOI 0.01, unique treatment at 1 hpi, 48 hpi, read-out: IC50) it was 101 µM; in the series on SARS-CoV-2 [1] (Severe acute respiratory syndrome coronavirus 2, Vero C1008, Vero E6, MOI 0.01, unique treatment at 1 hpi, 72 hpi, read-out: IC50) it was 45.1 µM; in the series with SARS-CoV-2 [1] (Vero E6, MOI 0.01, treatment 1 hpi, read-out: Mean IC50 (viral replication)), 73 ± 25 µM. Moreover, in the series with COX, the “ability to inhibit COX” value was “lacked the ability to inhibit COX”. For the same compound, the “Oligomer Size (hydrodynamic diameter Dh of DNA-NTD complex)” value in [2] amounted to 12.7 ± 0.7 nm. In the series “in vitro”, this compound gave a CC50 above 1000 µM. The same compound came in with a CC50 at 48 h post infection in the series “in vitro” above 1000 µM. The compound also displayed a CC50 at 72 h post infection in “in vitro” above 1000 µM.

On to `COc1ccc2cc([C@H](C)C(=O)O)ccc2c1` [Naproxen, naproxen], for which the 50% inhibitory concentration (IC50) is 25 ± 7 µM in the series on Influenza A virus (MOI = 10^−2); 46.1 µM in the series on SARS-CoV-2 [1] (Severe acute respiratory syndrome coronavirus 2, Vero C1008, Vero E6, MOI 0.01, unique treatment at 1 hpi, 48 hpi); 59.5 µM in the series with SARS-CoV-2 [1] (Severe acute respiratory syndrome coronavirus 2, Vero C1008, Vero E6, MOI 0.01, unique treatment at 1 hpi, 72 hpi); 50 ± 10 µM in the series with SARS-CoV-2 [1] (Severe acute respiratory syndrome coronavirus 2, Vero C1008, read-out: Mean IC50 (viral replication), Vero E6, MOI 0.01, treatment 1 hpi); 52 ± 6 µM in the series with SARS-CoV-2 [1] (read-out: Mean IC50 (viral replication), Vero E6, MOI 0.01, treatment 1 hpi); 3.45 µM with viral 3C-like protease. In the series with COX, the “COX Inhibition” value is “COX1 + COX2”. The “Oligomer Size (hydrodynamic diameter Dh of DNA-NTD complex)” value in [2] worked out at 7.9 ± 0.3 nm. In addition, the “antiviral effect versus mock-treated control” value with SARS-CoV-2 in nasal HAE is given as “did not show an antiviral effect”.

In the case of `CC(C)Cc1ccc(C(C)C(=O)O)cc1` (stereo not drawn) [ibuprofen], the “effect on SARS-CoV-2 entry or replication in vitro” value in the series with SARS-CoV-2 [5] is on record as “did not affect SARS-CoV-2 entry or replication in vitro”.

`Cc1cnc(NC(=O)C2=C(O)c3ccccc3S(=O)(=O)N2C)s1` [meloxicam]: the “effect on SARS-CoV-2 entry or replication in vitro” value with SARS-CoV-2 [5] is given as “did not affect SARS-CoV-2 entry or replication in vitro”.

Source of the values: paper PMC8124269 (Molecules, 2021).
